Counter-ions that a name gives are not always drawn.

Histamine H3 receptor, sequence (Q9JI35 whole entry): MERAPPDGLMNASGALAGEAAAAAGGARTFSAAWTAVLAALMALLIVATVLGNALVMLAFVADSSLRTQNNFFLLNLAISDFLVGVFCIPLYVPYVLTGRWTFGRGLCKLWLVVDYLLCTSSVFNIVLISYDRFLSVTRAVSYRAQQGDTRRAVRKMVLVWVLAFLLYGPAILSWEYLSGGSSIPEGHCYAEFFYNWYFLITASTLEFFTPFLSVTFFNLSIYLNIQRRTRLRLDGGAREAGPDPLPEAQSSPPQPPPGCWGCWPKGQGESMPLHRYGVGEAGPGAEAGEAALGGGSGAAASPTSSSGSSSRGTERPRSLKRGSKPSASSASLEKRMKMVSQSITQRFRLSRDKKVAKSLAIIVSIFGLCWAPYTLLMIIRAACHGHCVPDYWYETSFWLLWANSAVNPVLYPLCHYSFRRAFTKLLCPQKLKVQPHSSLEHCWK

The target of the first experiment is Histamine H3 receptor (Cavia porcellus, UniProt Q9JI35). The experiment is described as follows: Histamine H3 radioligand binding assay, guinea pig cortex ([3H]-R-α-methylhistamine). The note with it: guinea pig cortex membranes, competition with 1 nM [3H]-R-α-methylhistamine. On the procedure: The compounds of the invention were also tested in a guinea pig cortex binding assay, as follows:
Histamine H3 Radioligand Binding Assay—Guinea Pig Cortex
Male Dunkin Hartley guinea pigs (200-300 g) were used. The whole brain was removed and immediately placed in ice-cold 20 mM Hepes-NaOH buffer (pH7.4 at 21±3° C.). The cortex was dissected, weighed and homogenised in ice-cold 20 mM Hepes-NaOH buffer (pH7.4 at 21±3° C.) (50 ml/guinea-pig cortex) using a polytron (Kinematica AG; PT-DA 3020/2TS, 3×3 s). The homogenate was centrifuged at 100×g for 5 min and the supernatants pooled and stored at 4° C. The pellets were rehomogenised in fresh ice-cold buffer (80 ml) and recentrifuged (100×g for 5 min). The supernatants were pooled and pellets rehomogenised and recentrifuged (100×g for 5 min). All supernatants were pooled and centrifuged at 39,800×g for 12 min at 4° C. The final pellet was resuspended in 20 mM Hepes-NaOH buffer (pH7.4 at 21±3° C.) to a tissue concentration of 7.5 mg.ml^−1, using a teflon-in-glass homogeniser.
Guinea pig cortex membranes (400 μl) were incubated for 165 min at 21±3° C. in a final volume of 500 μl with 20 mM Hepes-NaOH buffer containing [^3H]-R-α-methylhistamine (50 μl; 1 nM) and competing compound. Total and non-specific binding of [^3H]-R-α-methylhistamine were defined using 50 μl of buffer and 50 μl of 10 μM thioperamide, respectively. The assay was terminated by rapid filtration through Whatman GF/B filters, presoaked (2 hr) in 0.1% polyethyleneimine, using a Brandell Cell Harvester. The filters were washed (3×3 ml) with ice-cold 50 mM Tris-HCl (pH6.9 at 21±3° C.), transferred into scintillation vials, 5 ml liquid scintillation cocktail was added and after 4 hours the bound radioactivity was determined by counting (4 min) in a Beckman liquid scintillation counter.
Data are analysed using GraphPad prism and the general equation for a competition curve with variable Hill slope (nH). [formula] where • X is the log concentration of competing compound, • Y is the binding obtained at each concentration of X, • pIC50 is the concentration of the competitor required to compete for half of the specific binding.
The IC50 is converted to the K1 using the Cheng Prusoff equation, K1=IC50/(1+(L/KD)) where • IC50 is the concentration of competitor required to compete for half the specific binding, • L is the radioligand concentration used, • KD is the equilibrium dissociation constant for the radioligand determined by saturation experiments.
Consider `Cl.Cl.N=C(NCCCN1CCCC1)NCC1CCCCC1` [Example 39, N-Cyclohexyl-methyl-N′-(3-pyrrolidin-1-yl-propyl)-guanidine bis-hydrochloride], for which the “pKi (Guinea pig cortex)” value is 7.4.

Still in this experiment, the particulars now being: guinea pig cortex membranes, competition with 1 nM [3H]-R-α-methylhistamine; read-out: pKi (Guinea pig cortex) (converted).
Consider `CN(CCN1CCCC1)S(=O)(=O)c1ccc2ccccc2c1` [Example 86, N-(2-Pyrrolidin-1-yl-ethyl)-N-methyl-2-naphthalenesulfonamide], for which the Ki was 2510 nM.

For the compound `N=C(NCCc1ccc(Cl)cc1)NCCN1CCCC1` [Example 23, N-(2-(4-Chlorophenyl)ethyl)-N′-(2-pyrrolidin-1-yl-ethyl)-guanidine bis-hydrochloride], the Ki was 316 nM.

Turning to `O=S(=O)(NCCN1CCCC1)NCc1ccc(Cl)cc1` [Example 134, N-(4-Chlorobenzyl)-N′-(2-pyrrolidin-1-yl-ethyl)-sulfamide], the Ki is 1000 nM.

`COC(=O)CN(CCC[C@@H]1CCCN1C)S(=O)(=O)NCc1ccc(Cl)cc1` [Example 123, N-(4-Chlorobenyl)-N′-(methoxycarbonylmethyl)-N′-(3-(1-methyl-pyrrolidin-2S-yl)propyl)-sulfamide]: the Ki was 251 nM.

With `[O-][S+](NCCCN1CCCC1)c1ccc2ccccc2c1` (stereo not drawn) [Example 87, N-(3-Pyrrolidin-1-yl-propyl)-2-naphthalenesulfinamide], the Ki is 1260 nM.

Take `CN1CCC[C@H]1CCNS(=O)(=O)Cc1ccc(Cl)cc1` [Example 97, N-(2-(1-Methyl-pyrrolidin-2S-yl)-ethyl)-(4-chlorophenyl)-methanesulfonamide]: the Ki was 1580 nM.

For `CN1CCC[C@H]1CCCNS(=O)(=O)NCc1ccccc1` [Example 108, N-Benzyl-N′-(3-(1-methyl-pyrrolidin-2S-yl)-propyl)-sulfamide], the Ki is 1580 nM.

`CN1CCCC1CCNC(=N)NCc1ccc(Cl)cc1` (stereo not drawn) [Example 27, N-(4-Chlorobenzyl)-N′-(2-(1-methyl-pyrrolidin-2-yl)-ethyl)-guanidine bis-hydrochloride]: the Ki is 158 nM.

Consider `CN1CCCC1CCCCCNS(=O)(=O)NCc1ccc(Cl)cc1` (stereo not drawn) [Example 117, N-(4-Chlorobenzyl)-N′-(5-(1-methyl-pyrrolidin-2S-yl)-pentyl)-sulfamide], for which the Ki was 79.4 nM.

Consider `N=C(NCCCCCN1CCCC1)NCc1ccc(C2CCCCC2)cc1` [Example 57, N-(4-Cyclohexylbenzyl)-N′-(5-pyrrolidin-1-yl-pentyl)-guanidine bis-hydrochloride], for which the Ki is 20 nM.

Regarding `CC(C)CN1CCC[C@H]1CCCNS(=O)(=O)Cc1ccc(Cl)cc1` [Example 143], the Ki was 794 nM.

`CN1CCC[C@H]1CCCNS(=O)(=O)NCCc1ccc(Cl)cc1` [Example 111, N-(2-(4-Chlorophenyl)-ethyl)-N′-(3-(1-methyl-pyrrolidin-2S-yl)-propyl)-sulfamide]: the Ki was 1580 nM.

As for `CN1CCC[C@@H]1CCCNS(=O)(=O)NCc1ccc(Cl)cc1` [Example 109, N-(4-Chlorobenzyl)-N′-(3-(1-methyl-pyrrolidin-2R-yl)-propyl)-sulfamide], the Ki is 200 nM.

In the case of `CN1CCCC1CCCCS(=O)(=O)NCC12CC3CC(CC(C3)C1)C2` (stereo not drawn) [Example 138, N-Adamantan-1-yl-methyl-4-(1-methyl-pyrrolidin-2S-yl)-butanesulfonamide], the Ki is 1260 nM.

`CN1CCCCC1CCNS(=O)(=O)c1ccc2ccccc2c1` (stereo not drawn) [Example 90, N-(2-(1-Methyl-piperidin-2-yl)-ethyl)-2-naphthalenesulfonamide]: the Ki was 1260 nM.

As to `CN1CCCC1CCNS(=O)(=O)c1cccc2ccccc12` (stereo not drawn) [Example 94, N-(2-(1-Methyl-pyrrolidin-2-yl)-ethyl)-1-naphthalenesulfonamide], the Ki was 2510 nM.

Take `CN1CCC[C@H]1CCCN(CCO)S(=O)(=O)NCc1ccc(Cl)cc1` [Example 124, N-(4-Chlorobenzyl)-N′-(2-hydroxyethyl)-N′-(3-(1-methyl-pyrrolidin-2S-yl)propyl)-sulfamide]: the Ki is 1260 nM.

`O=S(=O)(NCCC[C@@H]1CCCN1CCCc1ccc(Cl)cc1)NCc1ccc(Cl)cc1` [Example 118]: the Ki was 1580 nM.

As to `CN1CCC[C@H]1CCCN(CC(=O)NCc1ccc(Cl)cc1)S(=O)(=O)NCc1ccc(Cl)cc1` [Example 129, N-(4-Chlorobenzyl)-N′-(4-chlorobenzylamidomethyl)-N′-(3-(1-methyl-pyrrolidin-2S-yl)propyl)-sulfamide], the Ki was 794 nM.

Take `CN1CCC[C@H]1CCCN(CCCN)S(=O)(=O)NCc1ccc(Cl)cc1` [Example 126, N-(4-Chlorobenzyl)-N′-(3-amino-propyl)-N′-(3-(1-methyl-pyrrolidin-2S-yl)propyl)-sulfamide]: the Ki was 1000 nM.

For the compound `N=C(NCCCN1CCOCC1)NCc1ccc(Cl)cc1` [Example 15, N-(4-Chlorobenzyl)-N′-(3-morpholin-4-yl-propyl)-guanidine bis-hydrochloride], the Ki is 794 nM.

On to `CN1CCCC1CCCCS(=O)(=O)NCC1CCCCC1` (stereo not drawn) [Example 137, N-Cyclohexyl-methyl-4-(1-methyl-pyrrolidin-2S-yl)-butanesulfonamide], for which the Ki was 2510 nM.

`CN(C)C(=O)CN(CCC[C@@H]1CCCN1C)S(=O)(=O)NCc1ccc(Cl)cc1` [Example 128, N-(4-Chlorobenzyl)-N′-(dimethylamidomethyl)-N′-(3-(1-methyl-pyrrolidin-2S-yl)propyl)-sulfamide]: the Ki is 3160 nM.

For `CN1CCC[C@H]1CCCN(CC(=O)OCc1ccccc1)S(=O)(=O)NCc1ccc(Cl)cc1` [Example 130, N-(4-Chlorobenzyl)-N′-(benyloxycarbonylmethyl)-N′-(3-(1-methyl-pyrrolidin-2S-yl)propyl)-sulfamide], the Ki is 5010 nM.

Consider `Cc1ccc(S(=O)(=O)NCCC2CCCN2C)cc1` (stereo not drawn) [Example 95, N-(2-(1-Methyl-pyrrolidin-2-yl)ethyl)4-toluenesulfonamide], for which the Ki was 1580 nM.

As for `CN1CCCC(CCCNS(=O)(=O)c2ccc3ccccc3c2)C1` (stereo not drawn) [Example 92, N-(3-(1-Methyl-piperidin-3-yl)-propyl)-2-naphthalenesulfonamide], the Ki is 2000 nM.

As for `CN1CCCC1CCNS(=O)(=O)c1ccc(Cl)cc1` (stereo not drawn) [Example 96, N-(2-(1-Methyl-pyrrolidin-2-yl)-ethyl)-4-chlorophenylsulfonamide], the Ki is 1580 nM.

As to `CN1CCN(CCCCNS(=O)(=O)c2ccc3ccccc3c2)CC1` [Example 85, N-(4-(4-Methyl-piperazin-1-yl)-butyl)-2-naphthalenesulfonamide], the Ki is 158 nM.

`CN1CCC(CCCNS(=O)(=O)c2ccc3ccccc3c2)CC1` [Example 93, N-(3-(1-Methyl-piperidin-4-yl)-propyl)-2-naphthalenesulfonamide]: the Ki was 3160 nM.

These data come from US6878736B1, “Histamine H3 receptor ligands” (James Black Foundation Limited, priority 1998, dated 2005).
